Test results reported in ChEMBL document CHEMBL1149945, “Synthesis and structure-activity relationships of potent retinoid X receptor ligands” (Bioorg Med Chem Lett, 1997).

Legend:
[1] = target: T1, Retinoic acid receptor alpha (Homo sapiens, UniProt P10276); experiment: Effective potency in transcriptional activation assay in CV-1 cells expressing retinoic acid receptor RAR alpha; Not active; format: functional, cell-based
T1 sequence (P10276 whole entry): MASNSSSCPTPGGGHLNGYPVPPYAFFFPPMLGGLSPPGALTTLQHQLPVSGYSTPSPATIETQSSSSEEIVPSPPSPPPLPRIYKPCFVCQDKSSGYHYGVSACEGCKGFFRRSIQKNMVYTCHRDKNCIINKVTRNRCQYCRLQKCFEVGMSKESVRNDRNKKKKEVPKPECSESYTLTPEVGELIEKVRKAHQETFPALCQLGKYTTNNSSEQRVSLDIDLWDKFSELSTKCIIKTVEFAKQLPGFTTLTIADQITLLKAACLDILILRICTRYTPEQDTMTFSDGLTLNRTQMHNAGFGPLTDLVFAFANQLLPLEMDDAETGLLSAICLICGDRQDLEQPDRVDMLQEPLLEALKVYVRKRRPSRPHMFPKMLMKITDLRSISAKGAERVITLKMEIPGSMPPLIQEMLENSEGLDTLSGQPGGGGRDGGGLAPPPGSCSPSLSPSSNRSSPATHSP

[2] = target: T2, Retinoic acid receptor RXR-beta (Mus musculus) (UniProt P28704); experiment: Percent efficacy for Retinoid X receptor RXR beta in CV-1 cell transcriptional activation assay; format: functional, cell-based
T2 sequence (whole entry): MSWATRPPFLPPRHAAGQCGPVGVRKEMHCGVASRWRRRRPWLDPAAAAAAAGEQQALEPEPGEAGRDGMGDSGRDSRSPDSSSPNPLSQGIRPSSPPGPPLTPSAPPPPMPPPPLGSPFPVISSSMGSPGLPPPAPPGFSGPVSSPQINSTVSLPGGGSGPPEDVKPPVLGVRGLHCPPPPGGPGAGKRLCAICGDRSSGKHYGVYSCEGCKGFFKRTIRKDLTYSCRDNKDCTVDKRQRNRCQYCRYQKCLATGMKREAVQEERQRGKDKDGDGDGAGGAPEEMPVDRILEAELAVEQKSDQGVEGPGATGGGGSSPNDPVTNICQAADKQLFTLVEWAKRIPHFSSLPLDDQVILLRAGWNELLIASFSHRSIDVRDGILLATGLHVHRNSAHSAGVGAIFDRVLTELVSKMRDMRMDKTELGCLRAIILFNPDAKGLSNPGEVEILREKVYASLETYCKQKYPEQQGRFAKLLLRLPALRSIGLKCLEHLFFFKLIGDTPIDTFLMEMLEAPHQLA

[3] = target: T3, Retinoic acid receptor RXR-gamma (Mus musculus) (UniProt P28705); experiment: Percent efficacy for Retinoid X receptor RXR gamma in CV-1 cell transcriptional activation assay; format: cell-based
T3 sequence (whole entry): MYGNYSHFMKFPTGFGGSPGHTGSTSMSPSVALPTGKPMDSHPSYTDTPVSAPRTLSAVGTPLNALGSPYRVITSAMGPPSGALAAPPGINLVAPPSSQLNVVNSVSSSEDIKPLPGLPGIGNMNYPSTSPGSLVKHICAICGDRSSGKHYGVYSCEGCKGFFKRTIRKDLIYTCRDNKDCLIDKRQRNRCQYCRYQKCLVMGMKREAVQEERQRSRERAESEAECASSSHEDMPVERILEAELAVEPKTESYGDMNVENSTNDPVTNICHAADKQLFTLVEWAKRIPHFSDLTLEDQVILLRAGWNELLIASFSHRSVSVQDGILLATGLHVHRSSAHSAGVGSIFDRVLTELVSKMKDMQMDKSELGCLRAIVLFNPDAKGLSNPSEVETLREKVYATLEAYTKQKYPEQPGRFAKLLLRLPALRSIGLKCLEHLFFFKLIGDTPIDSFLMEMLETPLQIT

[4] = target: T4, Retinoic acid receptor gamma (Homo sapiens, UniProt P13631); settings: cv-1
T4 sequence (P13631 whole entry): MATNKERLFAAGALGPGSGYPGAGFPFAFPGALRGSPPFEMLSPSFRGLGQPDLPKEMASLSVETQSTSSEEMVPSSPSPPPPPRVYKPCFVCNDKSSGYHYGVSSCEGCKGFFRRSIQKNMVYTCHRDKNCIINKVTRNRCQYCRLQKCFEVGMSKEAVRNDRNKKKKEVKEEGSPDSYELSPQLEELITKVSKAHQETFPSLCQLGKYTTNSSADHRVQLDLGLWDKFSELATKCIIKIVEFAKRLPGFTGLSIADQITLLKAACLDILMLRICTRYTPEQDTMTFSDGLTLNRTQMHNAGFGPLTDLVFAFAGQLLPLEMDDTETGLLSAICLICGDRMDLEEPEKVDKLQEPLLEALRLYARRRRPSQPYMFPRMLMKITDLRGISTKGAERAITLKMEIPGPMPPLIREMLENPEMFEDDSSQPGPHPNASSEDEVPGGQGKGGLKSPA

[5] = target: T5, Retinoic acid receptor RXR-beta (Mus musculus, UniProt P28704); experiment: Inhibition of [3H]9-cis-RA binding to Retinoid X receptor RXR beta
T5 sequence (P28704 whole entry): T2 sequence (whole entry)

[6] = target: T6, Retinoic acid receptor beta (Homo sapiens, UniProt P10826); settings: cv-1
T6 sequence (P10826 whole entry): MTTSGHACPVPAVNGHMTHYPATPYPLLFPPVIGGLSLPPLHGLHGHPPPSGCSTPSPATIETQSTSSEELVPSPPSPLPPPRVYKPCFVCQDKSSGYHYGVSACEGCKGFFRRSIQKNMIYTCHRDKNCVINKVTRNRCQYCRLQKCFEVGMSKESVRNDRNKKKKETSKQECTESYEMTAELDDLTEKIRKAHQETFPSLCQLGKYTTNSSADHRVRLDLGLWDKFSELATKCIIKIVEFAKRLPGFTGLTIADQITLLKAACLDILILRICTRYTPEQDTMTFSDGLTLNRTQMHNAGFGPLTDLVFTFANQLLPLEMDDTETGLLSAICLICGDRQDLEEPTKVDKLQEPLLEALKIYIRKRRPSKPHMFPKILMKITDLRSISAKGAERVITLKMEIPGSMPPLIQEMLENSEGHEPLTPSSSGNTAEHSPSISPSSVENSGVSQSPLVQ

[7] = target: T7, Retinoic acid receptor RXR-gamma (Mus musculus, UniProt P28705); experiment: Inhibition of [3H]9-cis-RA binding to Retinoid X receptor RXR gamma
T7 sequence (P28705 whole entry): T3 sequence (whole entry)

[8] = target: T6, Retinoic acid receptor beta; experiment: Inhibition of [3H]ATRA binding to retinoic acid receptor RAR beta
[9] = target: T8, Retinoic acid receptor RXR-alpha (Homo sapiens, UniProt P19793); experiment: Inhibition of [3H]9-cis-RA binding to Retinoid X receptor RXR alpha
T8 sequence (P19793 whole entry): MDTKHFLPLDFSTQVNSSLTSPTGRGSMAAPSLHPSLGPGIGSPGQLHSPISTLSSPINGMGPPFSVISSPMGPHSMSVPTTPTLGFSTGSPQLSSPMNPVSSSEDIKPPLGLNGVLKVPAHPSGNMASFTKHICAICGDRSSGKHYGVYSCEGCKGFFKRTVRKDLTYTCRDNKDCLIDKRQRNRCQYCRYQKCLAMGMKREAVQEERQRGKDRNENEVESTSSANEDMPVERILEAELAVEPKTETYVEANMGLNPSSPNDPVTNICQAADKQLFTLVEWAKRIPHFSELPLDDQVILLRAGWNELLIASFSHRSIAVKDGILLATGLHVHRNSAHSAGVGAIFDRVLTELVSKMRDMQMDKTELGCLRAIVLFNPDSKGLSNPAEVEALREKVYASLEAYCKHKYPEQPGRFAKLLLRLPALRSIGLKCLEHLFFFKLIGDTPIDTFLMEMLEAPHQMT

[10] = target: T8, Retinoic acid receptor RXR-alpha; experiment: Effective potency in transcriptional activation assay in CV-1 cells expressing Retinoid X receptor RXR alpha; format: functional, cell-based
[11] = target: T1, Retinoic acid receptor alpha; experiment: Inhibition of [3H]ATRA binding to retinoic acid receptor RAR alpha
[12] = target: T5, Retinoic acid receptor RXR-beta; experiment: Effective potency in transcriptional activation assay in CV-1 cells expressing Retinoid X receptor RXR beta; format: functional, cell-based
[13] = target: T4, Retinoic acid receptor gamma; experiment: Inhibition of [3H]-ATRA binding to Retinoic acid receptor RAR gamma
[14] = target: T7, Retinoic acid receptor RXR-gamma; experiment: (§1) Effective potency in transcriptional activation assay in CV-1 cells expressing Retinoid X receptor RXR gamma; format: cell-based
[15] = target: T4, Retinoic acid receptor gamma; experiment: Effective potency in transcriptional activation assay in CV-1 cells expressing retinoic acid receptor RAR gamma; format: functional, cell-based
[16] = target: T6, Retinoic acid receptor beta; experiment: Effective potency in transcriptional activation assay in CV-1 cells expressing retinoic acid receptor RAR beta; format: functional, cell-based
[17] = target: T7, Retinoic acid receptor RXR-gamma; experiment: as §1; format: functional, cell-based

Compound	EC50 [1]	Efficacy [2] [%]	Efficacy [3] [%]	EC50 [4]	Ki [5] [nM]	EC50 [6]	Ki [7] [nM]	Ki [8] [nM]	Ki [9] [nM]	EC50 [10] [nM]	Ki [11] [nM]	EC50 [12] [nM]	Ki [13] [nM]	EC50 [14] [nM]	EC50 [15] [nM]	EC50 [16] [nM]	EC50 [17] [nM]
CC(/C=C/[C@]1(C)CCCC1c1ccc2c(c1)C(C)(C)CCC2(C)C)=C\C(=O)O (single isomer, unassigned)	Not Active	50	38	Not Active	10	Not Active	7	> 1000	4	62	> 1000	62	> 1000	44	–	–	–
C=C1C[C@H](c2ccc3c(c2)C(C)(C)CCC3(C)C)[C@@H](/C=C/C(C)=C/C(=O)O)C1	Not Active	169	99	–	252	–	54	> 1000	38	189	> 1000	222	> 1000	212	355	559	–
CC(/C=C/[C@]12CCC[C@@]1(c1ccc3c(c1)C(C)(C)CCC3(C)C)C2)=C\C(=O)O	Not Active	92	77	–	10	Not Active	5	> 1000	3	4	> 1000	3	> 1000	3	209	–	–
C=C1C[C@@H](/C=C/C(C)=C/C(=O)O)[C@@H](c2ccc3c(c2)C(C)(C)CCC3(C)C)C1	Not Active	369	90	Not Active	556	Not Active	161	> 1000	66	169	> 1000	220	> 1000	–	–	–	204
CC(/C=C/[C@H]1CCC[C@@H]1c1ccc2c(c1)C(C)(C)CCC2(C)C)=C\C(=O)O	Not Active	110	70	–	6	–	5	> 1000	3	8	> 1000	10	> 1000	6	1290	637	–
CC(/C=C/[C@@H]1CCC[C@@H]1c1ccc2c(c1)C(C)(C)CCC2(C)C)=C\C(=O)O	Not Active	101	58	Not Active	11	Not Active	26	> 1000	15	31	> 1000	29	> 1000	25	–	–	–
CC(/C=C/C1=C(c2ccc3c(c2)C(C)(C)CCC3(C)C)CCC1)=C\C(=O)O	Not Active	70	62	–	36	–	58	> 1000	20	53	> 1000	42	> 1000	40	1150	339	–
CC(/C=C/C1=C(c2cc3c(cc2C)C(C)(C)CCC3(C)C)CCC1)=C\C(=O)O	Not Active	44	42	Not Active	25	Not Active	22	> 1000	5	95	> 1000	191	> 1000	128	–	–	–
C=C(c1ccc(C(=O)O)cc1)c1cc2c(cc1C)C(C)(C)CCC2(C)C	–	–	85	–	–	–	–	–	–	–	–	–	–	–	–	–	–
CC(/C=C/[C@@]1(C)CCCC1c1ccc2c(c1)C(C)(C)CCC2(C)C)=C\C(=O)O (single isomer, unassigned)	Not Active	110	72	–	10	–	7	> 1000	4	7	> 1000	14	> 1000	16	1780	809	–
